# Results from PubChem BioAssay AID248 (DTP/NCI, 2004).
# Several values for one entry are separate records, joined by “and”; a condition that tells them apart may be missing. Equal values may be shown once. Toxic doses and inconclusive results are not listed. Square brackets hold non-standard residues; d marks the D form. Peptide text beside a SMILES is read from it. * marks the point of attachment. ξ: configuration not given here. Cbz = O=C(OCc1ccccc1)*; ξNle = CCCCC(N)C(=O)O
# System: L1210 leukemia ip in BDF1 mice, survival T/C
# Assay: NCI In Vivo Anticancer Drug Screen. Data for tumor model L1210 Leukemia (intraperitoneal) in B6D2F1 (BDF1) mice
# Details: endpoint: mean survival time, higher = longer survival
# Procedure, shortened: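 Tumor was transplanted into mice, which were then dosed with test compound or vehicle alone. Survival was recorded for each group, and the treated figure was expressed relative to the control figure.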
# [1] = dose: 100.0 mg/kg/injection, schedule: Q01DX009 (ip), vehicle: saline with Tween-80
# [2] = dose: 200.0 mg/kg/injection, schedule: Q01DX009 (ip), vehicle: saline with Tween-80
# [3] = dose: 100.0 mg/kg/injection, schedule: Q04DX003 (ip), vehicle: saline with Tween-80
# [4] = dose: 100.0 mg/kg/injection, schedule: Q01DX009 (ip), vehicle: saline
# [5] = dose: 100.0 mg/kg/injection, schedule: Q01DX009 (ip), vehicle: Klucel (hydroxypropylcellulose) (HPC)
# [6] = dose: 100.0 mg/kg/injection, schedule: Q04DX003 (ip), vehicle: Klucel (hydroxypropylcellulose) (HPC)
# [7] = dose: 200.0 mg/kg/injection, schedule: Q01DX009 (ip), vehicle: Klucel (hydroxypropylcellulose) (HPC)
# [8] = dose: 200.0 mg/kg/injection, schedule: Q04DX003 (ip), vehicle: Klucel (hydroxypropylcellulose) (HPC)
# [9] = dose: 400.0 mg/kg/injection, schedule: Q04DX003 (ip), vehicle: Klucel (hydroxypropylcellulose) (HPC)
# [10] = dose: 50.0 mg/kg/injection, schedule: Q01DX009 (ip), vehicle: Klucel (hydroxypropylcellulose) (HPC)
compound,measurement,setting,value
O=C(O)C1CC1(Br)Br (stereo not given),T/C,"dose: 100.0 mg/kg/injection, schedule: Q04DX003 (ip), vehicle: acetone",87 % of control
CCCCC(NC(=O)OCc1ccccc1)C(=O)NCC(=O)OCC (stereo not given) (Cbz-[ξNle]-Gly-OEt),T/C,"dose: 50.0 mg/kg/injection, schedule: Q01DX009 (ip), vehicle: saline with Tween-80",97 % of control
same,T/C,[1],97 % of control
same,T/C,[2],104 % of control
CCCC(C)C(C)CC (stereo not given),T/C,"dose: 25.0 mg/kg/injection, schedule: Q01DX001 (ip), vehicle: saline sonified",107 % of control
same,T/C,"dose: 50.0 mg/kg/injection, schedule: Q01DX001 (ip), vehicle: saline sonified",98 % of control
same,T/C,"dose: 100.0 mg/kg/injection, schedule: Q01DX001 (ip), vehicle: saline sonified",93 % of control
N/N=C1/CCc2ccccc21,T/C,"dose: 100.0 mg/kg/injection, schedule: Q01DX001 (ip), vehicle: Klucel (hydroxypropylcellulose) (HPC)",90 % of control
same,T/C,"dose: 200.0 mg/kg/injection, schedule: Q01DX001 (ip), vehicle: Klucel (hydroxypropylcellulose) (HPC)",112 % of control
C=CCN(C)N=Nc1ccccc1C(N)=O,T/C,"dose: 88.0 mg/kg/injection, schedule: Q01DX009 (ip), vehicle: saline with Tween-80",158 % of control
same,T/C,"dose: 88.0 mg/kg/injection, schedule: Q04DX003 (ip), vehicle: saline with Tween-80",122 % of control
same,T/C,[3],116 % of control
same,T/C,"dose: 133.0 mg/kg/injection, schedule: Q01DX009 (ip), vehicle: saline with Tween-80",150 % of control
same,T/C,"dose: 176.0 mg/kg/injection, schedule: Q01DX001 (ip), vehicle: saline with Tween-80",109 % of control
same,T/C,[2],95 % of control
C/C(=N/N(C)C)c1ccc(C)cc1,T/C,"dose: 100.0 mg/kg/injection, schedule: Q01DX001 (ip), vehicle: saline",93 % of control
same,T/C,[4],91 % of control
same,T/C,"dose: 200.0 mg/kg/injection, schedule: Q01DX001 (ip), vehicle: saline",97 % of control
same,T/C,"dose: 400.0 mg/kg/injection, schedule: Q01DX001 (ip), vehicle: saline",105 % of control
Cc1cc(N(CCCl)CCCl)ccc1C=Nc1ccccc1-c1ccccc1,T/C,"dose: 5.0 mg/kg/injection, schedule: Q01DX Z (ip), vehicle: carboxymethylcellulose (CMC)",110 % of control
same,T/C,"dose: 10.0 mg/kg/injection, schedule: Q01DX Z (ip), vehicle: carboxymethylcellulose (CMC)",114 % of control
same,T/C,"dose: 40.0 mg/kg/injection, schedule: Q01DX Z (ip), vehicle: carboxymethylcellulose (CMC)",109 % of control
same,T/C,"dose: 80.0 mg/kg/injection, schedule: Q01DX Z (ip), vehicle: carboxymethylcellulose (CMC)",117 % of control
Cc1c(Cl)cccc1NC(=O)c1cccc([N+](=O)[O-])c1,T/C,[5],103 % of control
same,T/C,[6],96 % of control
same,T/C,[7],95 % of control
same,T/C,[8],93 % of control
same,T/C,"dose: 400.0 mg/kg/injection, schedule: Q01DX009 (ip), vehicle: Klucel (hydroxypropylcellulose) (HPC)",94 % of control
same,T/C,[9],91 % of control
O=C(NNc1ccccc1)NC1OCC(O)C(O)C1O (stereo not given),T/C,[4],92 % of control
same,T/C,"dose: 100.0 mg/kg/injection, schedule: Q04DX003 (ip), vehicle: water",97 % of control
same,T/C,"dose: 200.0 mg/kg/injection, schedule: Q01DX009 (ip), vehicle: saline",92 % of control
same,T/C,"dose: 200.0 mg/kg/injection, schedule: Q04DX003 (ip), vehicle: water",97 % of control
same,T/C,"dose: 400.0 mg/kg/injection, schedule: Q01DX009 (ip), vehicle: saline",93 % of control
same,T/C,"dose: 400.0 mg/kg/injection, schedule: Q04DX003 (ip), vehicle: water",97 % of control
O=C(Nc1ccc(C(=O)O)c(O)c1)Nc1ccccc1C(F)(F)F,T/C,"dose: 50.0 mg/kg/injection, schedule: Q01DX001 (ip), vehicle: carboxymethylcellulose (CMC)",92 % of control
same,T/C,"dose: 50.0 mg/kg/injection, schedule: Q01DX009 (ip), vehicle: carboxymethylcellulose (CMC)",100 % of control and 106 % of control
same,T/C,"dose: 50.0 mg/kg/injection, schedule: Q04DX003 (ip), vehicle: carboxymethylcellulose (CMC)",93 % of control
same,T/C,"dose: 100.0 mg/kg/injection, schedule: Q01DX001 (ip), vehicle: carboxymethylcellulose (CMC)",101 % of control
same,T/C,"dose: 100.0 mg/kg/injection, schedule: Q01DX009 (ip), vehicle: carboxymethylcellulose (CMC)",105 % of control and 92 % of control
same,T/C,"dose: 100.0 mg/kg/injection, schedule: Q04DX002 (ip), vehicle: carboxymethylcellulose (CMC)",94 % of control and 97 % of control
same,T/C,"dose: 100.0 mg/kg/injection, schedule: Q04DX003 (ip), vehicle: carboxymethylcellulose (CMC)",88 % of control
same,T/C,"dose: 200.0 mg/kg/injection, schedule: Q01DX001 (ip), vehicle: carboxymethylcellulose (CMC)",97 % of control
same,T/C,"dose: 200.0 mg/kg/injection, schedule: Q01DX009 (ip), vehicle: carboxymethylcellulose (CMC)",91 % of control and 92 % of control
same,T/C,"dose: 200.0 mg/kg/injection, schedule: Q04DX002 (ip), vehicle: carboxymethylcellulose (CMC)",101 % of control and 108 % of control
same,T/C,"dose: 200.0 mg/kg/injection, schedule: Q04DX003 (ip), vehicle: carboxymethylcellulose (CMC)",89 % of control
same,T/C,"dose: 400.0 mg/kg/injection, schedule: Q04DX002 (ip), vehicle: carboxymethylcellulose (CMC)",103 % of control
C=C(Br)CNS(C)(=O)=O,T/C,"dose: 6.25 mg/kg/injection, schedule: Q01DX009 (ip), vehicle: saline",106 % of control
same,T/C,"dose: 12.5 mg/kg/injection, schedule: Q01DX009 (ip), vehicle: saline",95 % of control
same,T/C,"dose: 12.5 mg/kg/injection, schedule: Q04DX003 (ip), vehicle: saline",98 % of control
same,T/C,"dose: 25.0 mg/kg/injection, schedule: Q01DX009 (ip), vehicle: saline",96 % of control
same,T/C,"dose: 25.0 mg/kg/injection, schedule: Q04DX003 (ip), vehicle: saline",104 % of control
O=Cc1ccccc1B(O)O,T/C,[10],96 % of control and 101 % of control
same,T/C,[5],97 % of control and 100 % of control
same,T/C,[6],98 % of control
same,T/C,[7],105 % of control and 124 % of control
same,T/C,[8],86 % of control
CCOC(=O)Cn1ccc(=O)[nH]c1=O,T/C,"dose: 100.0 mg/kg/injection, schedule: Q04DX003 (ip), vehicle: saline",98 % of control
same,T/C,"dose: 200.0 mg/kg/injection, schedule: Q04DX003 (ip), vehicle: saline",96 % of control
same,T/C,"dose: 400.0 mg/kg/injection, schedule: Q04DX003 (ip), vehicle: saline",102 % of control
OC1CCN2CCCc3cccc1c32 (stereo not given),T/C,"dose: 12.5 mg/kg/injection, schedule: Q01DX009 (ip), vehicle: DMSO",93 % of control
same,T/C,"dose: 12.5 mg/kg/injection, schedule: Q04DX003 (ip), vehicle: DMSO",94 % of control
same,T/C,"dose: 25.0 mg/kg/injection, schedule: Q01DX009 (ip), vehicle: DMSO",94 % of control
same,T/C,"dose: 25.0 mg/kg/injection, schedule: Q04DX003 (ip), vehicle: DMSO",95 % of control
same,T/C,"dose: 50.0 mg/kg/injection, schedule: Q01DX009 (ip), vehicle: DMSO",90 % of control
same,T/C,"dose: 50.0 mg/kg/injection, schedule: Q04DX003 (ip), vehicle: DMSO",105 % of control
CCC(O)C[As](=O)(O)c1ccccc1 (stereo not given),T/C,"dose: 1.56 mg/kg/injection, schedule: Q04DX003 (ip), vehicle: saline",94 % of control
same,T/C,"dose: 3.13 mg/kg/injection, schedule: Q04DX003 (ip), vehicle: saline",105 % of control
same,T/C,"dose: 6.25 mg/kg/injection, schedule: Q04DX003 (ip), vehicle: saline",96 % of control
CN(C)/N=C/c1ccc(-c2ccccc2)cc1,T/C,[1],95 % of control
same,T/C,[2],111 % of control
same,T/C,"dose: 400.0 mg/kg/injection, schedule: Q01DX009 (ip), vehicle: saline with Tween-80",102 % of control
O=C(NNC(=O)OCCCl)OCCCl,T/C,"dose: 111.0 mg/kg/injection, schedule: Q01DX Z (ip), vehicle: methylcellulose (MC)",107 % of control
same,T/C,"dose: 166.0 mg/kg/injection, schedule: Q01DX Z (ip), vehicle: methylcellulose (MC)",92 % of control
same,T/C,"dose: 250.0 mg/kg/injection, schedule: Q01DX Z (ip), vehicle: methylcellulose (MC)",107 % of control
CCOC(=O)C1CCC(=O)N1C(=O)c1cc([N+](=O)[O-])cc([N+](=O)[O-])c1 (stereo not given),T/C,[6],97 % of control
same,T/C,[8],92 % of control
same,T/C,[9],94 % of control
COc1ccc(Nc2ccccc2C(=O)NN)cc1,T/C,[10],102 % of control
same,T/C,[5],96 % of control
same,T/C,[6],94 % of control
same,T/C,[8],105 % of control
O=c1c2ccccc2c(=O)c2c1ccc1[nH]c3ccccc3n(-c3ccccc3)c12,T/C,[3],88 % of control
same,T/C,"dose: 200.0 mg/kg/injection, schedule: Q04DX003 (ip), vehicle: saline with Tween-80",89 % of control
same,T/C,"dose: 400.0 mg/kg/injection, schedule: Q04DX003 (ip), vehicle: saline with Tween-80",94 % of control
